Reference: the NIST ThermoML archive (doi:10.1016/j.jct.2008.12.014)
Numbers after ± are expanded uncertainties.

Details: Liquid, Vibrating tube method

CC(C)O [propan-2-ol]
Details	mass density [kg/m3]
350.14 K, 220.4 kPa	731.92 ± 0.18
350.14 K, 663.4 kPa	732.49 ± 0.19
350.14 K, 1071.2 kPa	733.03 ± 0.19
350.14 K, 1412.6 kPa	733.49 ± 0.2
350.14 K, 1844.7 kPa	734.07 ± 0.2
350.14 K, 2226.7 kPa	734.58 ± 0.21
350.14 K, 2644.7 kPa	735.11 ± 0.21
350.14 K, 2842.7 kPa	735.41 ± 0.22
350.14 K, 3286.9 kPa	735.99 ± 0.22
350.14 K, 3630.7 kPa	736.45 ± 0.23
350.14 K, 4012.2 kPa	736.94 ± 0.23
350.14 K, 4394.6 kPa	737.43 ± 0.24
350.14 K, 4757.6 kPa	737.91 ± 0.24
350.14 K, 5197.9 kPa	738.48 ± 0.25
350.14 K, 5577.9 kPa	738.96 ± 0.25
350.14 K, 5939.3 kPa	739.42 ± 0.25
350.14 K, 6321.3 kPa	739.89 ± 0.26
350.14 K, 6730.9 kPa	740.41 ± 0.26
350.14 K, 7119.7 kPa	740.89 ± 0.27
350.14 K, 7564.4 kPa	741.45 ± 0.27
350.14 K, 7988.5 kPa	741.97 ± 0.28
350.14 K, 8472.5 kPa	742.55 ± 0.28
350.14 K, 8925.8 kPa	743.13 ± 0.29
350.14 K, 9280.8 kPa	743.56 ± 0.29
350.14 K, 9676.3 kPa	744.05 ± 0.3
375.01 K, 349.5 kPa	702.23 ± 0.2
375.01 K, 703.3 kPa	702.82 ± 0.21
375.01 K, 1046.8 kPa	703.38 ± 0.21
375.01 K, 1437.5 kPa	704.01 ± 0.22
375.01 K, 1791.6 kPa	704.58 ± 0.22
375.01 K, 2161.7 kPa	705.16 ± 0.23
375.01 K, 2545.7 kPa	705.76 ± 0.23
375.01 K, 2909.9 kPa	706.34 ± 0.24
375.01 K, 3364.1 kPa	707.04 ± 0.24
375.01 K, 3677.6 kPa	707.53 ± 0.25
375.01 K, 4083.2 kPa	708.16 ± 0.25
375.01 K, 4515.7 kPa	708.82 ± 0.26
375.01 K, 4853.5 kPa	709.33 ± 0.26
375.01 K, 5280.2 kPa	709.98 ± 0.27
375.01 K, 5646.9 kPa	710.53 ± 0.27
375.01 K, 6138.1 kPa	711.26 ± 0.28
375.01 K, 6447.1 kPa	711.73 ± 0.28
375.01 K, 6880.9 kPa	712.37 ± 0.29
375.01 K, 7269.8 kPa	712.94 ± 0.3
375.01 K, 7772.4 kPa	713.68 ± 0.3
375.01 K, 8119.2 kPa	714.18 ± 0.31
375.01 K, 8557.2 kPa	714.81 ± 0.31
375.01 K, 8987.3 kPa	715.42 ± 0.32
375.01 K, 9423.8 kPa	716.04 ± 0.32
375.01 K, 9842.2 kPa	716.64 ± 0.33
392.57 K, 407.6 kPa	679.26 ± 0.22
392.57 K, 888.7 kPa	680.18 ± 0.22
392.57 K, 1171.4 kPa	680.72 ± 0.23
392.57 K, 1526.6 kPa	681.39 ± 0.23
392.57 K, 1897.4 kPa	682.08 ± 0.24
392.57 K, 2272.3 kPa	682.77 ± 0.24
392.57 K, 2619.1 kPa	683.41 ± 0.25
392.57 K, 3050.4 kPa	684.2 ± 0.25
392.57 K, 3411.2 kPa	684.86 ± 0.26
392.57 K, 3835 kPa	685.63 ± 0.27
392.57 K, 4095.7 kPa	686.12 ± 0.27
392.57 K, 4524.9 kPa	686.89 ± 0.28
392.57 K, 4902.8 kPa	687.57 ± 0.28
392.57 K, 5283.5 kPa	688.24 ± 0.29
392.57 K, 5775.9 kPa	689.09 ± 0.29
392.57 K, 6039.6 kPa	689.55 ± 0.3
392.57 K, 6476.6 kPa	690.3 ± 0.3
392.57 K, 6889.7 kPa	691.01 ± 0.31
392.57 K, 7348 kPa	691.78 ± 0.32
392.57 K, 7728 kPa	692.42 ± 0.32
392.57 K, 8172.7 kPa	693.17 ± 0.33
392.57 K, 8598.3 kPa	693.88 ± 0.33
392.57 K, 9018.5 kPa	694.57 ± 0.34
392.57 K, 9405 kPa	695.2 ± 0.34
392.57 K, 9837.9 kPa	695.89 ± 0.35
